Series [1] deals with Replicase polyprotein 1ab (Severe acute respiratory syndrome coronavirus 2) (UniProt P0DTD1). The series can be described thus: Inhibition of SARS-CoV-2 MPro using E(EDAS)TSAVLQSGFRK(DABCYL) as substrate at 100 uM by fluorescence based analysis relative to control.
Series [2] deals with Replicase polyprotein 1ab (Severe acute respiratory syndrome coronavirus 2, UniProt P0DTD1). The series can be described thus: Inhibition of SARS-CoV-2 MPro using E(EDAS)TSAVLQSGFRK(DABCYL) as substrate by fluorescence based analysis.
Series [3] concerns SARS-CoV-2. Description: Antiviral activity against SARS-CoV-2 infected in Vero E6 cells assessed as inhibition of viral replication at 50 uM measured for 72 hrs relative to control. The class given is functional. The conditions noted are these: Severe acute respiratory syndrome coronavirus 2, Vero C1008.
Series [4] can be described thus: Cytotoxicity against African green monkey Vero E6 cells assessed as cell viability at 50 uM incubated for 48 hrs by CellTiter96 assay relative to control. The class given is toxicity, cell-based, Vero C1008. The settings on record: chlorocebus sabaeus, read-out: Activity.
The test system of series [5] is SARS-CoV-2. The series can be described thus: Antiviral activity against SARS-CoV-2 infected in Vero E6 cells assessed as inhibition of viral replication at 10 uM measured for 72 hrs relative to control. The class given is functional. The conditions noted are these: Severe acute respiratory syndrome coronavirus 2, Vero C1008.
The nature of series [6]: Cytotoxicity against African green monkey Vero E6 cells assessed as cell viability incubated for 48 hrs by CellTiter96 assay. The series is classed as toxicity, cell-based, Vero C1008. The settings on record: chlorocebus sabaeus.
Series [7] concerns SARS-CoV-2. Description: Antiviral activity against SARS-CoV-2 infected in Vero E6 cells assessed as inhibition of viral replication measured for 72 hrs. The conditions noted are these: Severe acute respiratory syndrome coronavirus 2, Vero C1008, 72 h. The class given is functional, organism-based.
The next series deals with Vero C1008. Description: Cytotoxicity against African green monkey Vero E6 cells assessed as cell viability at 10 uM incubated for 48 hrs by CellTiter96 assay. The series is classed as toxicity, cell-based. The settings on record: chlorocebus sabaeus, vero c1008, 48 h.

SMILES strings stand for the structures.

As a reminder, the inhibition is the relative decrease from the control value, in per cent. The term IC50 denotes the point on the concentration scale where inhibition reaches its midpoint. In series [1], `O=C(Nc1ccccc1)c1cccc(COc2ccc(Nc3ncnc4ccccc34)cc2Cl)c1` gave an inhibition of 98%. The same molecule came in with an IC50 in series [2] of 3.75 µM. The inhibition at 50 µM in the series on SARS-CoV-2 [3] amounted to 68.4%. In series [4], the viability at 48 h, 50 µM was 1%.

In the case of `O=C(Nc1ccccc1Cl)c1ccc(COc2ccc(Nc3ncnc4ccccc34)cc2Cl)cc1`, in series [1], the inhibition amounted to 30.8%. For the same molecule, the inhibition at 50 µM with SARS-CoV-2 [3] is 57.7%. In addition, the viability at 48 h, 50 µM in series [4] worked out at 3.64%.

Take `Clc1cc(Nc2ncnc3ccccc23)ccc1OCc1cccc(Br)c1`: the inhibition in series [1] came to 82%. Moreover, the IC50 in series [2] amounted to 4.38 µM. Also, in the series with SARS-CoV-2 [3], the inhibition at 50 µM amounted to 68.4%. Besides, the viability at 48 h, 50 µM in series [4] was 28.1%.

A word on the CC50: it is the concentration at which the toxic effect on the cells reaches its halfway point. What is called EC50 is the concentration needed to bring the measured effect to its halfway point. Turning to `O=C(Nc1ccccc1F)c1cccc(COc2ccc(Nc3ncnc4ccccc34)cc2Cl)c1`, in the series on SARS-CoV-2 [5], the inhibition at 10 µM amounted to 82.2%. Moreover, the inhibition in series [1] was 68.6%. In addition, the CC50 at 48 h in series [6] was over 100 µM. Besides, the EC50 with SARS-CoV-2 [7] turned out to be 1.1 µM. Besides, in the series with SARS-CoV-2 [3], the inhibition at 50 µM came out at 96.9%. In addition, the viability at 48 h, 50 µM in series [4] is 13.6%.

On to `COc1cccc(NC(=O)c2ccc(COc3ccc(Nc4ncnc5ccccc45)cc3Cl)cc2)c1`, for which the inhibition in series [1] worked out at 49.3%. For the same molecule, the inhibition at 50 µM in the series on SARS-CoV-2 [3] was determined as 82.2%. For the same molecule, in series [4], the viability at 48 h, 50 µM came out at 22.6%.

In series [1], `Fc1cccc(COc2ccc(Nc3ncnc4ccccc34)cc2Cl)c1` yielded an inhibition of 82.6%. In series [2], this molecule had an IC50 of 3.18 µM. The inhibition at 50 µM in the series on SARS-CoV-2 [3] was 43.7%. Further, in series [4], the viability at 48 h, 50 µM was found to be 44.8%.

For the molecule `CS(=O)(=O)CCNCc1ccc(-c2ccc3ncnc(Nc4ccc(OCc5cccc(F)c5)c(Cl)c4)c3c2)o1` [LAPATINIB], in the series on SARS-CoV-2 [5], the inhibition at 10 µM is 58.8%. This molecule also registered an inhibition in series [1] of 97.1%. The inhibition at 50 µM in the series with SARS-CoV-2 [3] was 92.7%. Further, the viability at 48 h, 50 µM in series [4] is 71.1%.

For the molecule `O=C(Nc1cccc(I)c1)c1ccc(COc2ccc(Nc3ncnc4ccccc34)cc2Cl)cc1`, the inhibition in series [1] is 87.7%. In addition, the IC50 in series [2] worked out at 9.12 µM. Besides, in the series with SARS-CoV-2 [3], the inhibition at 50 µM came to 94.5%. In series [4], the viability at 48 h, 50 µM is 0%.

For `O=C(Nc1ccccc1)c1ccc(COc2ccc(Nc3ncnc4ccccc34)cc2Cl)cc1`, the inhibition in series [1] amounted to 66.3%. Also, the inhibition at 50 µM with SARS-CoV-2 [3] was 0%. Moreover, in series [4], the viability at 48 h, 50 µM came to 8.05%.

On to `O=C(Nc1ccccc1Cl)c1cccc(COc2ccc(Nc3ncnc4ccccc34)cc2Cl)c1`, for which the inhibition in series [1] was 53%. Also, the inhibition at 50 µM in the series on SARS-CoV-2 [3] worked out at 95.9%. The viability at 48 h, 50 µM in series [4] is 38%.

In the case of `COc1cccc(NC(=O)c2cccc(COc3ccc(Nc4ncnc5ccccc45)cc3Cl)c2)c1`, the inhibition at 50 µM in the series with SARS-CoV-2 [3] came out at 92.7%. Besides, in series [4], the viability at 48 h, 50 µM was 8.66%.

In turn, `O=C(Nc1ccccc1F)c1ccc(COc2ccc(Nc3ncnc4ccccc34)cc2Cl)cc1` returned an inhibition in series [1] of 66.4%. Further, the inhibition at 50 µM in the series with SARS-CoV-2 [3] was determined as 86.7%. The viability at 48 h, 50 µM in series [4] was found to be 0%.

Take `CCC(CC)COC(=O)[C@H](C)N[P@](=O)(OC[C@H]1OC(C#N)(c2ccc3c(N)ncnn23)[C@H](O)[C@@H]1O)Oc1ccccc1` (some centres undefined): in the series with SARS-CoV-2 [5], the inhibition at 10 µM is 99.9%. Besides, the Activity result in the series with Vero C1008 is given as “Non-toxic”.

For `O=C(Nc1cccc(I)c1)c1cccc(COc2ccc(Nc3ncnc4ccccc34)cc2Cl)c1`, the inhibition in series [1] came out at 55.7%. In the series on SARS-CoV-2 [3], the inhibition at 50 µM is 99%. In addition, the viability at 48 h, 50 µM in series [4] was 21%.

In turn, `O=C(Nc1ccc(Cl)cc1)c1cccc(COc2ccc(Nc3ncnc4ccccc34)cc2Cl)c1` had an inhibition in series [1] of 69.5%. Besides, in the series with SARS-CoV-2 [3], the inhibition at 50 µM came to 24.9%. Besides, the viability at 48 h, 50 µM in series [4] was 9.39%.

With `O=C(Nc1cccc(C(F)(F)F)c1)c1ccc(COc2ccc(Nc3ncnc4ccccc34)cc2Cl)cc1`, in series [1], the inhibition is 55.7%. In addition, the inhibition at 50 µM in the series with SARS-CoV-2 [3] came to 90%. In series [4], the viability at 48 h, 50 µM was 17.3%.

For the molecule `O=C(Nc1cccc(C(F)(F)F)c1)c1cccc(COc2ccc(Nc3ncnc4ccccc34)cc2Cl)c1`, in the series with SARS-CoV-2 [3], the inhibition at 50 µM was found to be 99%. Also, the viability at 48 h, 50 µM in series [4] worked out at 26.6%.

Molecule `Clc1cc(Nc2ncnc3ccccc23)ccc1OCc1ccccc1` displayed an inhibition in series [1] of 74.6%. For the same molecule, the IC50 in series [2] came out at 3.97 µM. For the same molecule, the inhibition at 50 µM in the series on SARS-CoV-2 [3] was 25.1%. Also, in series [4], the viability at 48 h, 50 µM was 49.3%.

For `O=C(Nc1ccc(Cl)cc1)c1ccc(COc2ccc(Nc3ncnc4ccccc34)cc2Cl)cc1`, the inhibition in series [1] was determined as 73.2%. Also, half-maximal inhibition in series [2] (IC50) required 4.83 µM. In the series on SARS-CoV-2 [3], the inhibition at 50 µM was 82.2%. Also, the viability at 48 h, 50 µM in series [4] was 0%.

(Values after ChEMBL document CHEMBL6103576, “Design, synthesis, and antiviral activity of fragmented-lapatinib aminoquinazoline analogs towards SARS-CoV-2 inhibition” (Eur J Med Chem, 2025).)
